Experimental data published in publication PMC4607724, “Discovery and optimisation studies of antimalarial phenotypic hits” (European Journal of Medicinal Chemistry, 2015).
Values after ≈ are worked out from the molar mass of the structure shown. Read-outs that look alike come from different tables or passages of the source.

Assays:
P. falciparum K1 = experiment: In vitro activity against erythrocytic stages of P. falciparum, 3H-hypoxanthine incorporation assay; format: cell-based; conditions: Plasmodium falciparum; K1 strain (chloroquine and pyrimethamine resistant); means of two independent assays; read-out: P. falc. EC50
Protocol: (§1) VI. Design and Results of the in vitro & in vivo Studies.
A. Drug inhibition of in vitro cultured P. falciparum parasite:[2] All in vitro assays were carried out twice independently in duplicate.In vitro activity against theerythrocytic stages of P. falciparum was determined by using a 3H-hypoxanthine incorporation assay, using the chloroquine and pyrimethamine resistant K1 strain and the standard drugs chloroquine (Sigma C6628) and artemisinin (Arteannuin, Qinghaosu; Sigma 36,159- 3). Compounds were dissolved in DMSO at 10 mg/mL and added to parasite cultures incubated in RPMI 1640 medium without hypoxanthine, supplemented with HEPES (5.94 g/L), NaHCO3 (2.1 g/L), neomycin (100U/mL), AlbumaxR (5 g/L), and washed human red cells A+ at 2.5% haematocrit (0.3% parasitaemia). Serial doubling dilutions of each drug were prepared in 96-well microtiter plates and incubated in a humidified atmosphere at 37 °C; 4% CO 2, 3% O2, 93% N2. After 48 h, 50 µLof 3H-hypoxanthine (= 0.5 µCi) was added to each well of the plate. The plates were incubated for an additional 24 h under the same conditions. The plates were then harvested with a Betaplate cell harvester (Wallac, Zurich, Switzerland), and the red blood cells were transferred onto a glass fiber filter and then washed with distilled water. The dried filters were inserted into a plastic foil with 10 mL of scintillation fluid and were counted in a Betaplate™ liquid scintillation counter (Wallac, Zurich, Switzerland); IC50values were calculated from sigmoidal inhibition curves using Microsoft Excel. […]

[1] = In vitro cytotoxicity assay in L-6 cells (Alamar Blue); conditions: rat, L-6 cells (rat skeletal myoblasts)
Protocol: as §1
A. Drug inhibition of in vitro cultured P. falciparum parasite:[2] […]
B. In vitro cytotoxicity assay: [2] Assays were performed in 96-well microtiter plates, each well containing 100 µl of RPMI 1640 medium supplemented with 1% L-glutamine (200mM) and 10% fetal bovine serum, and 4 x 10^4 L-6 cells (a primary cell line derived from rat skeletal myoblasts).
Serial drug dilutions of seven 3-fold dilution steps covering a range from 90 to 0.123 µg/mL were prepared. After 72 h of incubation the plates were inspected under an inverted microscope to assure growth of the controls and sterile conditions. 10µL of Alamar Blue was then added to each well and the plates incubated for another 2 h. Then the plates were read with a Spectramax Gemini XS microplatefluorometer (Molecular Devices Cooperation, Sunnyvale, CA, USA) using an excitation wave length of 536 nm and an emission wave length of 588 nm. Data were analysed using the microplate reader software Softmax Pro (Molecular Devices Cooperation, Sunnyvale, CA, USA).

[2] = Chromatographic LogD estimation (gLogD); format: physicochemical; conditions: chromatographic gLogD technique, pH 7.4
Protocol: (§2) IV. Physicochemical Evaluation […]
Chromatographic Log D Estimation: The partition coefficient (gLogDpH 7.4) of 20 was estimated by correlation of its chromatographic retention properties with the retention characteristics of a series of standard compounds with known partition coefficient values. Data were collected using a Waters 2785 HPLC with a Waters 2487 dual channel UV detector with a Phenomenex Synergi Hydro-RP 4 µm (30 mm x 2 mm) column. The mobile phase was aqueous buffer (50 mM ammonium acetate, pH 7.4) and acetonitrile with an acetonitrile gradient of 0-100% over 10 min. Compound elution was monitored at 220 and 254 nm. […]

[3] = Aqueous solubility estimation by nephelometry; format: physicochemical; conditions: 1% DMSO
Protocol: as §2
Solubility Estimation: Aqueous solubility was estimated by nephelometry. A concentrated
stock solution prepared in DMSO was spiked into either pH 6.5 phosphate buffer or 0.01 N HCl
(approx. pH 2.0) with the final DMSO concentration being 1%. Samples were then analyzed by
Nephelometry to determine the solubility range as described previously.[9] […]

[4] = Metabolic stability, NADPH-dependent degradation in human liver microsomes; format: in vitro ADME
Protocol: (§3) Compound 20 (1 µM) was incubated at 37 ° C with human or mouse liver microsomes (BD Gentest, Discovery Labware Inc., Woburn, MA). The reaction was initiated by the addition of an NADPH-regenerating system containing 1 mg/mL NADP, 1 mg/mL glucose-6-phosphate, 1 U/mL glucose-6-phosphate dehydrogenase, and 0.67 mg/mL MgCl2and quenched at various time points over the incubation period (60 min) by the addition of ice cold acetonitrile. Samples were also incubated in the absence of co-factor to monitor for non-specific degradation. The relative loss of parent compound and formation of metabolic products were monitored by LC/MS using a Waters/Micromass LCT instrument.
(§4) Compound concentration versus time data were fitted to an exponential decay function to determine the first-order rate constant for substrate depletion which was used to obtain the in vitro intrinsic clearance (in vitro CLint), and then scaled to predict the human intrinsic clearance (scaling parameters included liver mass of 25.7 g liver/kg body weight for human and 87.5 g liver/kg body weight for mouse and microsomal protein content of 45 mg microsomal protein/g liver mass for […]
(§5) both species)[10]. […]

[5] = Metabolic stability, NADPH-dependent degradation in mouse liver microsomes; format: in vitro ADME
Protocol: as §3, §4, §5

Question: What does the source list for Cc1cc(/C=C2\S/C(=N\c3ccccc3)N(C3CCCCC3)C2=O)c(C)n1-c1ccc(F)cc1 [Compound 20, (2Z, 5Z)-3-Cyclohexyl-5-((1-(4-fluorophenyl)-2,5-dimethyl-1H-pyrrol-3-yl)methylene)-2-(phenylimino)thiazolidin-4-one]?
Answer: EC50 (P. falciparum K1): 2 µM; EC50 at 72 h [1]: > 190 µM; chromatographic logD [2]: 7.1; Solubility pH 2.0 ([3]; pH 2.0 (0.01 N HCl)): poor aqueous solubility; solubility ([3]; pH 2.0 (0.01 N HCl), read-out: Solubility pH 2.0): < 0.8 µg/mL; Solubility pH 6.5 ([3]; pH 6.5 phosphate buffer): poor aqueous solubility; solubility ([3]; pH 6.5 phosphate buffer, read-out: Solubility pH 6.5): 0.8 to 1.6 µg/mL (≈ 1.69 to 3.38 µM); Metabolites detected ([4]; human liver microsomes, LC/MS): no obvious metabolites were detected and None; Microsome predicted hepatic extraction ratio EH ([4]; human, well-stirred model): 0.67; NADPH-dependent degradation ([4]; incubation with human liver microsomes): rapid NADPH-dependent degradation; CLint scaled at 1 µM ([4]; liver microsomes, human, scaled from in vitro CLint, read-out: Microsome predicted in vivo CLint): 2.52 L/h/kg; NADPH-dependent degradation ([5]; incubation with mouse liver microsomes): rapid NADPH-dependent degradation; CLint scaled at 1 µM ([5]; liver microsomes, mouse, scaled from in vitro CLint, read-out: Microsome predicted in vivo CLint): 13 L/h/kg; In vitro CLint ([5]; mouse liver microsomes, 1 µM, 37 °C, NADPH): 0.055 ml/min/mg Protein; Metabolites detected ([5]; mouse liver microsomes, LC/MS): no obvious metabolites were detected and None; Microsome predicted hepatic extraction ratio EH ([5]; mouse, well-stirred model): 0.71
